Assay results: paper PMC4879574, “Identification of Leishmania donovani Topoisomerase 1 inhibitors via intuitive scaffold hopping and bioisosteric modification of known Top 1 inhibitors” (Scientific Reports, 2016)

Target: T1, Human Top1 (HTop1) (Homo sapiens, UniProt P11387)
T1 construct: made in house; host or cells: Sf-9 insect cells infected with recombinant baculovirus (gift from Prof. J. J. Champoux)
T1 sequence (P11387 1-765): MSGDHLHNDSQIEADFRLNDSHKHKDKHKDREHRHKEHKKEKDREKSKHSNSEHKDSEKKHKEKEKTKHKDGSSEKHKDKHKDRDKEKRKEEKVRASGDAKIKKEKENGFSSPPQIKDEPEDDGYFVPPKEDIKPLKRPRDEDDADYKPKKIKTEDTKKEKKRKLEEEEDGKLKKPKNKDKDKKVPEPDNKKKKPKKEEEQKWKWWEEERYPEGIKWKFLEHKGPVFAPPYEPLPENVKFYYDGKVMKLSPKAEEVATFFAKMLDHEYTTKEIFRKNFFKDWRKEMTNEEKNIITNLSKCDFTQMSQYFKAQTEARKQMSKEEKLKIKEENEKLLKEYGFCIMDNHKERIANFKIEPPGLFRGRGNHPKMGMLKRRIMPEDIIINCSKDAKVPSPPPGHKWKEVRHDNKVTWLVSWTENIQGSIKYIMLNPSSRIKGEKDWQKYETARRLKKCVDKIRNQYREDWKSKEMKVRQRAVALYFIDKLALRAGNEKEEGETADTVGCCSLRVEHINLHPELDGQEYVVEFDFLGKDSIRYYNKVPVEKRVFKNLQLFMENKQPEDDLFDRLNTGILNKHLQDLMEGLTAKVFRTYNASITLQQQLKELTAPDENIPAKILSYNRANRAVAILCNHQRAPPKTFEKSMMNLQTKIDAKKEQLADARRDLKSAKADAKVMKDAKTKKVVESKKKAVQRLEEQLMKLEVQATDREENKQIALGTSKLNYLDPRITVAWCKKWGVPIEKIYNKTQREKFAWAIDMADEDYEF
Assay: Plasmid DNA relaxation assay, HTop1
Format: biochemical
Conditions: averages of three experiments, read-out: HTop1 inhibition (EC50)
Description: To investigate the inhibitory effect of our library compounds on the DNA relaxation activity of the recombinant Human and Leishmania topoisomerase 1 (Table 2), assays were performed involving supercoiled plasmid DNA, the enzymes (HTop1 and LdTop1) and our molecules. The enzymes were purified by the standard literature procedure.
The type I DNA topoisomerase are assayed by decreased mobility of the relaxed isomers of supercoiled pBS (SK^+) [pBlue-script (SK^+)] DNA in agarose gel. The relaxation assay was carried out as described previously with LdTop1B and HTop I, diluted in the relaxation buffer (25 mM Tris–HCl, pH 7.5, 5% glycerol, 0.5 mM DTT, 10 mM MgCl2, 50 mM KCl, […] and […] BSA) and supercoiled plasmid pBS (SK^+) DNA (85–95% were negatively supercoiled, with remainder being nicked circles)[9][28][29]. The reconstituted enzyme LdTop1B was assayed at 50 mM KCl concentration as described before. For all kinetic studies, the reaction mixtures containing the buffer and DNA were heated to 37 °C before addition of the enzymes. The reactions were rapidly quenched using stop solution and kept on ice. The gels were stained with ethidium bromide (EtBr) ([…]) and the amount of supercoiled monomer DNA band fluorescence were quantified by integration using Gel Doc 2000 under UV illumination (Bio-Rad Quantity One Software), as described previously.
The wild-type HTop1 (91 kDa) was purified from Sf-9 insect cells infected with the recombinant baculovirus (a kind gift from Prof. J. J. Champoux). Approximately, 1 * 10^9 Sf-9 cells were infected with the recombinant virus, and cells were harvested after 48-h of infection. The cells were lysed and enzyme was purified as described. Briefly, at 48 h post-infection, approximately 3 * 10^9 Sf-9 cells were harvested by centrifugation for 5 min at 400 * g. The cells were resuspended in 1 liter of ice-cold phosphate-buffered saline and centrifuged for 5 min at 400 * g. The nuclei were washed twice in 80 ml of lysis buffer minus Triton X-100 and resuspended in 40 ml of resuspension buffer (50 mM KCl, 10 mM Tris-Cl, pH 7.5, 2 mM MgCl2, 25 mM DTT, 0.4 mg/ml phenylmethylsulfonyl fluoride, 0.12 mg/ml aprotinin). The nuclear extract was stirred for 5 min at ~200 rpm. With continued stirring, 50 ml of polyethylene glycol (PEG) buffer (18% PEG 8000, 1 M NaCl, 10% glycerol) was added dropwise in order to precipitate the DNA. The PEG precipitate was pelleted by centrifugation and the resulting PEG supernatant was dialyzed against 4 liters of potassium phosphate buffer. The dialyzed PEG supernatant passed over a 10-ml bed volume of phosphocellulose (Whatman P11) equilibrated with PPB. The HTop1 flowed through the PS column and then passed over a Mono Q column followed by loaded onto a Mono S column. The Mono S column was eluted with a 25-ml 50–200 mM KPO4, pH 7.4, gradient. […] The peak Mono S fractions were pooled, concentrated with an Amicon ultrafiltration cell, dialyzed into storage buffer (50% glycerol, 10 mM Tris-hydrochloride, pH 7.5, 1 mM DTT, 1 mM EDTA), and stored at −20 °C.

`Cc1cc2c(c(=O)[nH]1)C(=O)O/C2=C\c1ccc(O)c(O)c1` [Compound 4] was tested, and the EC50 was greater than 100 µM.
